Test system: gene promoters in NT2/D1-R1 control and DNMT3B knockdown cells
Assay: Genome-wide promoter methylation analysis, HumanMethylation27 BeadChip (Table 15)
Format: cell-based, human
Settings: sh-3b + 5aza
Procedure: DNA methylation analysis was performed in samples in triplicate using the […] […] assay with the HumanMethylation27 BeadChip ([…]) and the BeadChip was scanned on the BeadArray Reader ([…]), according to the manufacturer's instructions. Raw data was normalized and analyzed with Genome Studio software ([…]). The HumanMethylation27 BeadChip assays 27,578 CpGs covering more than 14,000 genes, mostly from promoter regions. […] Hierarchical clustering was performed as stated above. HumanMethylation27 BeadChip data and gene expression microarray data were submitted to NCBI GEO.

Compound: Nc1ncn([C@H]2C[C@H](O)[C@@H](CO)O2)c(=O)n1 [5aza]
- SERPING1 cg12783776 promoter methylation Mean: 0.350
- SFRS16 cg19317638 promoter methylation Mean: 0.369
- SFXN3 cg04880063 promoter methylation Mean: 0.188
- SH3BGRL2 cg03080985 promoter methylation Mean: 0.260
- SHH cg25167838 promoter methylation Mean: 0.127
- SKIP cg04072323 promoter methylation Mean: 0.310
- SLC30A2 cg05674944 promoter methylation Mean: 0.337
- SMCP cg09542291 promoter methylation Mean: 0.504
- SNX9 cg26845300 promoter methylation Mean: 0.722
- SOX17 cg21226224 promoter methylation Mean: 0.495
- SPRR1B cg24884084 promoter methylation Mean: 0.334
- SSH1 cg11747499 promoter methylation Mean: 0.292
- SSTR1 cg27590397 promoter methylation Mean: 0.900
- TAC1 cg07550362 promoter methylation Mean: 0.507
- TADA3L cg09279263 promoter methylation Mean: 0.350
- TERT cg02545192 promoter methylation Mean: 0.311
- TNFSF10 cg16555388 promoter methylation Mean: 0.430
- TNRC4 cg26093148 promoter methylation Mean: 0.661
- TNRC15 cg07230446 promoter methylation Mean: 0.243
- TRAF3 cg24165760 promoter methylation Mean: 0.797
- TRIM2 cg12793610 promoter methylation Mean: 0.506
- TRIM36 cg10693071 promoter methylation Mean: 0.545
- TRPM3 cg20555507 promoter methylation Mean: 0.291
- UNC5D cg00297600 promoter methylation Mean: 0.384
- WDR13 cg25053301 promoter methylation Mean: 0.211
- ZFHX1B cg15377518 promoter methylation Mean: 0.472
- ZNF222 cg09757277 promoter methylation Mean: 0.355
- cg07512517 promoter methylation Mean: 0.473
- Mean promoter methylation, ABCA3 cg02331561 (DNMT3B knockdown cells): 0.145
- Mean promoter methylation, ABLIM3 cg05026186 (DNMT3B knockdown cells): 0.240
- Mean promoter methylation, ACTL6B cg08572611 (DNMT3B knockdown cells): 0.138
- Mean promoter methylation, ANKRD46 cg23737055 (DNMT3B knockdown cells): 0.257
- Mean promoter methylation, ARNT2 cg17788682 (DNMT3B knockdown cells): 0.139
- Mean promoter methylation, B4GALNT3 cg05769161 (DNMT3B knockdown cells): 0.271
- Mean promoter methylation, BTBD1 cg16958189 (DNMT3B knockdown cells): 0.259
- Mean promoter methylation, C1RL cg22593785 (DNMT3B knockdown cells): 0.188
- Mean promoter methylation, C10orf10 cg17186163 (DNMT3B knockdown cells): 0.237
- Mean promoter methylation, C10orf72 cg02569613 (DNMT3B knockdown cells): 0.312
- Mean promoter methylation, C12orf34 cg01335367 (DNMT3B knockdown cells): 0.420
- Mean promoter methylation, C17orf40 cg18042079 (DNMT3B knockdown cells): 0.213
- Mean promoter methylation, C19orf30 cg07456645 (DNMT3B knockdown cells): 0.254
- Mean promoter methylation, C20orf29 cg09158909 (DNMT3B knockdown cells): 0.226
- Mean promoter methylation, C22orf9 cg11221513 (DNMT3B knockdown cells): 0.229
- Mean promoter methylation, CACNA1G cg18454685 (DNMT3B knockdown cells): 0.286
- Mean promoter methylation, CAMKK2 cg01369981 (DNMT3B knockdown cells): 0.191
- Mean promoter methylation, CART cg23300372 (DNMT3B knockdown cells): 0.160
- Mean promoter methylation, CCKBR cg13346411 (DNMT3B knockdown cells): 0.197
- Mean promoter methylation, CDC42EP1 cg13951472 (DNMT3B knockdown cells): 0.217
- Mean promoter methylation, CDKN2A cg10895543 (DNMT3B knockdown cells): 0.168
- Mean promoter methylation, CHST8 cg24739326 (DNMT3B knockdown cells): 0.319
- Mean promoter methylation, CPSF1 cg20326853 (DNMT3B knockdown cells): 0.241
- Mean promoter methylation, CSMD1 cg22619018 (DNMT3B knockdown cells): 0.201
- Mean promoter methylation, DCTN3 cg22579849 (DNMT3B knockdown cells): 0.325
- Mean promoter methylation, DDX42 cg05797656 (DNMT3B knockdown cells): 0.192
- Mean promoter methylation, DGKD cg25506396 (DNMT3B knockdown cells): 0.202
- Mean promoter methylation, DGKI cg06277657 (DNMT3B knockdown cells): 0.190
- Mean promoter methylation, DKK2 cg01404615 (DNMT3B knockdown cells): 0.398
- Mean promoter methylation, DUSP8 cg02271621 (DNMT3B knockdown cells): 0.135
- Mean promoter methylation, EHD2 cg12603043 (DNMT3B knockdown cells): 0.176
- Mean promoter methylation, ELK1 cg21860846 (DNMT3B knockdown cells): 0.181
- Mean promoter methylation, EMP3 cg01795122 (DNMT3B knockdown cells): 0.127
- Mean promoter methylation, EYA4 cg01805282 (DNMT3B knockdown cells): 0.174
- Mean promoter methylation, FAM70B cg15350194 (DNMT3B knockdown cells): 0.222
- Mean promoter methylation, FAM73B cg00729541 (DNMT3B knockdown cells): 0.213
- Mean promoter methylation, FCHSD2 cg17114257 (DNMT3B knockdown cells): 0.179
- Mean promoter methylation, FLJ20273 cg01704534 (DNMT3B knockdown cells): 0.222
- Mean promoter methylation, FLJ20273 cg15967525 (DNMT3B knockdown cells): 0.362
- Mean promoter methylation, FLJ42486 cg03734874 (DNMT3B knockdown cells): 0.287
- Mean promoter methylation, GAB3 cg12938998 (DNMT3B knockdown cells): 0.235
- Mean promoter methylation, GALR1 cg04534765 (DNMT3B knockdown cells): 0.176
- Mean promoter methylation, GCN5L2 cg08434547 (DNMT3B knockdown cells): 0.249
- Mean promoter methylation, GNAS cg00943909 (DNMT3B knockdown cells): 0.097
- Mean promoter methylation, HBQ1 cg07703401 (DNMT3B knockdown cells): 0.220
- Mean promoter methylation, HCN1 cg11285003 (DNMT3B knockdown cells): 0.202
- Mean promoter methylation, HES6 cg24127874 (DNMT3B knockdown cells): 0.377
- Mean promoter methylation, HEYL cg25462291 (DNMT3B knockdown cells): 0.218
- Mean promoter methylation, HRH3 cg08186362 (DNMT3B knockdown cells): 0.297
- Mean promoter methylation, ICAM1 cg22874046 (DNMT3B knockdown cells): 0.144
- Mean promoter methylation, ID2 cg23525180 (DNMT3B knockdown cells): 0.201
- Mean promoter methylation, IGFBP3 cg04796162 (DNMT3B knockdown cells): 0.230
- Mean promoter methylation, KATNB1 cg15153383 (DNMT3B knockdown cells): 0.265
- Mean promoter methylation, KCNAB1 cg23873703 (DNMT3B knockdown cells): 0.334
- Mean promoter methylation, KCNC2 cg18573383 (DNMT3B knockdown cells): 0.159
- Mean promoter methylation, KIAA1822 cg02867079 (DNMT3B knockdown cells): 0.345
- Mean promoter methylation, KIAA1840 cg06121469 (DNMT3B knockdown cells): 0.191
- Mean promoter methylation, KRTCAP2 cg11278262 (DNMT3B knockdown cells): 0.257
- Mean promoter methylation, LGALS1 cg00292662 (DNMT3B knockdown cells): 0.230
- Mean promoter methylation, LGR6 cg23578193 (DNMT3B knockdown cells): 0.187
- Mean promoter methylation, LOX cg06508445 (DNMT3B knockdown cells): 0.101
- Mean promoter methylation, MAP6D1 cg03705396 (DNMT3B knockdown cells): 0.201
- Mean promoter methylation, MGC9850 cg21097640 (DNMT3B knockdown cells): 0.218
- Mean promoter methylation, MRPL38 cg11653266 (DNMT3B knockdown cells): 0.155
- Mean promoter methylation, MT cg14078309 (DNMT3B knockdown cells): 0.154
- Mean promoter methylation, MYOD1 cg18555440 (DNMT3B knockdown cells): 0.321
- Mean promoter methylation, OGG1 cg25415932 (DNMT3B knockdown cells): 0.240
- Mean promoter methylation, OR10J1 cg25076881 (DNMT3B knockdown cells): 0.335
- Mean promoter methylation, OSTbeta cg16029760 (DNMT3B knockdown cells): 0.144
- Mean promoter methylation, PABPC4 cg12585282 (DNMT3B knockdown cells): 0.221
- Mean promoter methylation, PDE8B cg18089852 (DNMT3B knockdown cells): 0.130
- Mean promoter methylation, PHLDA2 cg01263716 (DNMT3B knockdown cells): 0.248
- Mean promoter methylation, PHLDA2 cg04720330 (DNMT3B knockdown cells): 0.195
- Mean promoter methylation, PIB5PA cg18053607 (DNMT3B knockdown cells): 0.247
- Mean promoter methylation, PLOD1 cg23286660 (DNMT3B knockdown cells): 0.235
- Mean promoter methylation, PPCDC cg11632617 (DNMT3B knockdown cells): 0.269
- Mean promoter methylation, PRDM12 cg09191327 (DNMT3B knockdown cells): 0.240
- Mean promoter methylation, PRMT8 cg23739862 (DNMT3B knockdown cells): 0.116
- Mean promoter methylation, PTPRO cg19402885 (DNMT3B knockdown cells): 0.303
- Mean promoter methylation, PTPRO cg27196745 (DNMT3B knockdown cells): 0.267
- Mean promoter methylation, R3HDML cg17692403 (DNMT3B knockdown cells): 0.288
- Mean promoter methylation, RAB37 cg12448933 (DNMT3B knockdown cells): 0.241
- Mean promoter methylation, RASA4 cg05749161 (DNMT3B knockdown cells): 0.102
- Mean promoter methylation, RASL11A cg06611744 (DNMT3B knockdown cells): 0.208
- Mean promoter methylation, SCAMP3 cg01745448 (DNMT3B knockdown cells): 0.209
- Mean promoter methylation, SCARA5 cg10171125 (DNMT3B knockdown cells): 0.239
- Mean promoter methylation, SEC14L2 cg14452140 (DNMT3B knockdown cells): 0.337
- Mean promoter methylation, SH3BGRL3 cg03100146 (DNMT3B knockdown cells): 0.341
- Mean promoter methylation, SHH cg00577464 (DNMT3B knockdown cells): 0.212
- Mean promoter methylation, SLC6A5 cg20632573 (DNMT3B knockdown cells): 0.192
- Mean promoter methylation, SLC25A22 cg02973416 (DNMT3B knockdown cells): 0.318
- Mean promoter methylation, SLC35C2 cg02413850 (DNMT3B knockdown cells): 0.155
- Mean promoter methylation, SLIT1 cg07143898 (DNMT3B knockdown cells): 0.176
- Mean promoter methylation, SORCS3 cg16787600 (DNMT3B knockdown cells): 0.384
- Mean promoter methylation, SOX15 cg01029592 (DNMT3B knockdown cells): 0.171
- Mean promoter methylation, SOX15 cg13098960 (DNMT3B knockdown cells): 0.261
- Mean promoter methylation, SOX17 cg02919422 (DNMT3B knockdown cells): 0.329
- Mean promoter methylation, STXBP3 cg11666924 (DNMT3B knockdown cells): 0.194
- Mean promoter methylation, SUSD2 cg23349242 (DNMT3B knockdown cells): 0.329
- Mean promoter methylation, TBXA2R cg09998229 (DNMT3B knockdown cells): 0.256
- Mean promoter methylation, THAP3 cg11688219 (DNMT3B knockdown cells): 0.344
- Mean promoter methylation, TMEM25 cg20001829 (DNMT3B knockdown cells): 0.238
- Mean promoter methylation, TMEM106C cg25884854 (DNMT3B knockdown cells): 0.229
- Mean promoter methylation, TRAPPC1 cg01667702 (DNMT3B knockdown cells): 0.231
- Mean promoter methylation, UBA52 cg24356797 (DNMT3B knockdown cells): 0.145
- Mean promoter methylation, UNQ2446 cg10574499 (DNMT3B knockdown cells): 0.218
- Mean promoter methylation, VPREB1 cg18441959 (DNMT3B knockdown cells): 0.230
- Mean promoter methylation, ZGPAT cg04078896 (DNMT3B knockdown cells): 0.191
- Mean promoter methylation, ZGPAT cg18611245 (DNMT3B knockdown cells): 0.379
- Mean promoter methylation, ZNF585B cg03751813 (DNMT3B knockdown cells): 0.182
- Mean promoter methylation, ZNF702 cg07559730 (DNMT3B knockdown cells): 0.221
